MEC and Activity data for three molecules are collected here from ChEMBL document CHEMBL1147308, “Novel secoiridoid lactones from Jasminum multiflorum” (1989).

Experiment [1] concerns Heart. As to the kind of experiment: Cardiotropic activity in perfused guinea pig heart assessed as minimum effective concentration. Type of experiment: functional, Cavia porcellus.
Experiment [2] concerns Heart. As to the kind of experiment: Cardiotropic activity in perfused guinea pig heart assessed as positive ionotropy. Type of experiment: functional, tissue-based. Conditions: Cavia porcellus.
The test system of experiment [3] is Heart. As to the kind of experiment: Cardiotropic activity in perfused guinea pig heart assessed as positive chronotropy. Type of experiment: functional, tissue-based. To be noted: Cavia porcellus.
The test system of experiment [4] is Heart. Kind of experiment: Coronary dilatory activity in perfused guinea pig heart assessed as minimum effective concentration. In kind it is functional, Cavia porcellus.
For experiment [5], the system named is Heart. Kind of experiment: Cardiotropic activity in perfused guinea pig heart assessed as negative ionotropy. Type of experiment: functional, tissue-based. To be noted: Cavia porcellus.
The subject of experiment [6] is Heart. As to the kind of experiment: Cardiotropic activity in perfused guinea pig heart assessed as negative chronotropy. Type of experiment: functional, tissue-based. To be noted: Cavia porcellus.

Molecules are shown by their SMILES. The source made the active and inactive calls. The calls are words filed in the database; no cut-off is given here.

As to `CC(C)NCC(O)c1ccc(O)c(O)c1` (configuration not stated) [ISOPROTERENOL], the MEC in the experiment with Heart [1] is 4.7 ×10⁻⁸ M; in the experiment with Heart [4], 4.7 ×10⁻⁷ M. The outcome in the experiment with Heart [2] and in the experiment on Heart [3] was Active.

`COC(=O)C1=CO[C@@H](O)[C@H]2[C@@H]1CC(=O)OC[C@H]2OCCc1ccc(O)c(O)c1` [JASMOLACTONE A]: the values for the MEC in the experiment with Heart [1] and with Heart [4] were 2.5 ×10⁻⁵ M and 1.3 ×10⁻⁵ M, respectively. In the experiment with Heart [5], the outcome was Active. Moreover, the result in the experiment on Heart [6] was inactive.

`O=C1C[C@@H]2C(C(=O)OCCc3ccc(O)c(O)c3)=CO[C@@H](O)[C@@H]2[C@H](OCCc2ccc(O)c(O)c2)CO1` [JASMOLACTONE B]: the MEC in the experiment on Heart [1] stood at 9.7 ×10⁻⁶ M; in the experiment on Heart [4], 4.8 ×10⁻⁶ M. Also, the result with Heart [5] was Active. Also, in the experiment with Heart [6], the result was inactive.
